# Assay results taken from PMC4777897 (Progress in neuro-psychopharmacology & biological psychiatry, 2015).
# What was measured:
# [1] = tested on: participants who met criteria for cocaine use disorder; test: Cocaine-induced cardiovascular effects; assay type: in vivo, human; conditions: nepicastat 0, 80, 160 mg; cocaine 0, 10, 20, 40 mg IV; n = 13
# [2] = tested on: DA and NE release in mPFC and NAc; conditions: rats, microdialysis; ref Devoto et al., 2014; cited from earlier work
# [3] = tested on: participants who met criteria for cocaine use disorder; test: Reinforcing effects: choice session, cocaine vs money self-administration; assay type: in vivo, human; conditions: Day 13; nepicastat 0 or 160 mg; cocaine 0 or 20 mg IV
# [4] = tested on: participants who met criteria for cocaine use disorder; test: Cocaine-induced subjective effects; assay type: in vivo, human; conditions: VAS
# [5] = Plasma pharmacokinetics of cocaine after 10 mg IV infusion; conditions: cocaine 10 mg IV
# rats = conditions: ref Schroeder et al., 2013; cited from earlier work
# [6] = tested on: participants who met criteria for cocaine use disorder; test: Adverse events, inpatient study of oral nepicastat with IV cocaine; assay type: in vivo, human
# [7] = Treatment–Cocaine period, nepicastat group n = 14
smiles,measurement,setting,value
"Cl.NCc1c[nH]c(=S)n1[C@H]1CCc2c(F)cc(F)cc2C1.O [nepicastat, (S)-5-aminomethyl-1-(5,7-difluoro-1,2,3,4-tetrahydronaphth-2-yl)-1,3-dihydroimidazole-2-thione hydrochloride monohydrate]",Main effect on peak heart rate (ANOVA),[1],one was detected
same,Main effect on peak systolic or diastolic blood pressure (ANOVA),[1],did not reveal a main effect
same,DA release in the mPFC and NAc,[2],increasing DA release in the mPFC but not in the NAc
same,Main effect on choices for cocaine vs money (ANOVA),[3],did not reveal a main effect
same,Effect on negative subjective effects,[4]; nepicastat 80 and 160 mg oral with IV cocaine,did not increase
same,Reduction of the positive subjective effects produced by cocaine,"[4]; nepicastat 80 and 160 mg oral, n = 13",~ 25%
same,Effect on PK parameters of benzoylecgonine or ecgonine methyl ester,"[5]; Day 3 vs Day 11, data not shown",None of the PK parameters for benzoylecgonine or ecgonine methyl ester showed statistically significant changes
same,"Effect on kinetics, metabolism or clearance of cocaine or its metabolites",[5]; oral nepicastat 160 mg,did not change
same,Breakpoint for cocaine,rats,significantly lowered
same,Incidence of Abnormal dreams,[6]; [7],0 (0) number (%) of subjects
same,Incidence of Arthralgia,[6]; [7],2 (14) number (%) of subjects
same,Incidence of Back pain,[6]; [7],0 (0) number (%) of subjects
same,Incidence of Depressed mood,[6]; [7],1 (7) number (%) of subjects
same,Incidence of Dizziness,[6]; [7],0 (0) number (%) of subjects
same,Incidence of Dyspepsia,[6]; [7],2 (14) number (%) of subjects
same,Incidence of Gastroesophageal reflux disease,[6]; [7],3 (21) number (%) of subjects
same,Incidence of Headache,[6]; [7],2 (14) number (%) of subjects
same,Incidence of Insomnia,[6]; [7],4 (29) number (%) of subjects
same,Incidence of Myalgia,[6]; [7],0 (0) number (%) of subjects
same,Incidence of Nausea,[6]; [7],1 (7) number (%) of subjects
same,Incidence of Neck pain,[6]; [7],2 (14) number (%) of subjects
same,Incidence of Vessel puncture site hematoma,[6]; [7],0 (0) number (%) of subjects
same,Incidence of Vessel puncture site pain,[6]; [7],4 (29) number (%) of subjects
same,"Safety and tolerability (number, type, severity and duration of AEs vs placebo)",[6]; oral nepicastat 80 and 160 mg during IV cocaine exposure,safe and well-tolerated
